# Assay results reported in patent US11524968B2, “Heterocyclic compound as a protein kinase inhibitor” (HK inno.N Corporation, priority 2017, dated 2022).
# Biological target: JAK1 (Homo sapiens (Human), UniProt P23458)
# Assay: Analysis of JAK1 activity inhibition ability (ADP-Glo Kinase Assay)
# Assay type: biochemical
# Conditions: JAK1 enzyme, ADP-Glo luminescence, ATP 250 uM, IRS-itide substrate, 30° C. 40 minutes; read-out: IC50
# Outline: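 ADP-Glo luminescence read-out of ADP production, with IC50 taken as the concentration halving JAK1 activity relative to control. Enzyme was incubated 40 min at 30 °C with compound, IRS-itide (40 ng/mL) and ATP (250 uM), concentrations as prepared in pH 7.5 Tris-HCl/MgCl2/BSA/DTT buffer.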
# Sequence of JAK1 (P23458 whole entry): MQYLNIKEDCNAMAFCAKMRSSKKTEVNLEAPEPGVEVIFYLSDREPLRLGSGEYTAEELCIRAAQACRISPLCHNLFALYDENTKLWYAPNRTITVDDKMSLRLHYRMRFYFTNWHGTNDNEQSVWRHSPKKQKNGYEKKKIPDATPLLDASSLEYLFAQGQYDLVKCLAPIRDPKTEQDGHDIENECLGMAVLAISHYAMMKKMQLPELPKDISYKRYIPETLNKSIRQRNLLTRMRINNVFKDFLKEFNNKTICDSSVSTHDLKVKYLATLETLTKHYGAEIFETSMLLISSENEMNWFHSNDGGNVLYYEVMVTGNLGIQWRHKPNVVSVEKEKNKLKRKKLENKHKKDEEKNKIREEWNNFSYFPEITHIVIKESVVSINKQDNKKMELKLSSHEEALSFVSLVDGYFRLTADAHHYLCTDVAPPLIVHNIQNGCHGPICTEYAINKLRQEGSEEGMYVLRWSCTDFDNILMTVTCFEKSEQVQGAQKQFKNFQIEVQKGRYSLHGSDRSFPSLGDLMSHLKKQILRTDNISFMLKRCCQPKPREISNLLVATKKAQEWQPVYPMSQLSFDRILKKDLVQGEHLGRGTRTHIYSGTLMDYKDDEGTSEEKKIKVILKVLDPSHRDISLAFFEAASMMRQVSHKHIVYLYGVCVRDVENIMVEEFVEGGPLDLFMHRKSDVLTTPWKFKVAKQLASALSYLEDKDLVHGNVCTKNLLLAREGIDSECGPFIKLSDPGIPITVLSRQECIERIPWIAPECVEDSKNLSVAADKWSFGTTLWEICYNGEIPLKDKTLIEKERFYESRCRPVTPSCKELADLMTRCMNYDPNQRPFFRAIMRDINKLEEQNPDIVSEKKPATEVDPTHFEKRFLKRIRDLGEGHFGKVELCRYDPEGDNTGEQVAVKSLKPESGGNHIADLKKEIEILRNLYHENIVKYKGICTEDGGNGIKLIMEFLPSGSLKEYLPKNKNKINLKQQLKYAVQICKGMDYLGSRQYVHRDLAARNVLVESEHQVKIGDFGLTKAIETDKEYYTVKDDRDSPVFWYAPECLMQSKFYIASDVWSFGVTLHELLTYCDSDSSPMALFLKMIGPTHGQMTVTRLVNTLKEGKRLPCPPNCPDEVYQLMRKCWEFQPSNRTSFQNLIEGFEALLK
row,Structure (SMILES),IC50 [nM]
1,"CC1CN(C(=O)c2ccnc(Br)c2)CC=C1c1cc(NC(=O)C2CC2)nc2[nH]ccc12 (stereo not drawn) [Example 382, N-(4-(1-(2-bromoisonicotinoyl)-3-methyl-1,2,3,6-tetrahydropyridin-4-yl)-1H-pyrrolo[2,3-b]pyridin-6-yl)cyclopropanecarboxamide]",20 to 200
2,"CCc1cc(NS(=O)(=O)CCCC#N)ccc1-c1cc(NC(=O)C2CC2)nc2[nH]ccc12 [Example 111, N-(4-(4-((3-cyanopropyl)sulfonamido)-2-ethylphenyl)-1H-pyrrolo[2,3-b]pyridin-6-yl)cyclopropanecarboxamide]",< 20
3,"O=C(Nc1cc(-c2ccc(CNS(=O)(=O)c3ccc(F)c(F)c3)cc2)c2cc[nH]c2n1)C1CC1 [Example 582, N-(4-(4-(((3,4-difluorophenyl)sulfonamido)methyl)phenyl)-1H-pyrrolo[2,3-b]pyridin-6-yl)cyclopropanecarboxamide]",< 20
4,"CC(C)(C)OC(=O)N1CC(CC#N)(N2CC=C(c3cc(NC(=O)C4CC4)nc4[nH]ccc34)CC2)C1 [Example 614, tert-butyl 3-(cyanomethyl)-3-(4-(6-(cyclopropanecarboxamido)-1H-pyrrolo[2,3-b]pyridin-4-yl)-3,6-dihydropyridin-1 (2H)-yl)azetidine-1-carboxylate]",> 200
5,"CC1(C)CN(C(=O)CCC#N)CC=C1c1cc(NC(=O)C2CC2)nc2[nH]ccc12 [Example 300, N-(4-(1-(3-cyanopropanoyl)-3,3-dimethyl-1,2,3,6-tetrahydropyridin-4-yl)-1H-pyrrolo[2,3-b]pyridin-6-yl)cyclopropanecarboxamide]",20 to 200
6,"N#C[C@H]1CCCN1C(=O)CN1C2CCC1CN(c1cc(NC(=O)C3CC3)nc3[nH]ccc13)C2 [Example 703, N-(4-(8-(2-((R)-2-cyanopyrrolidin-1-yl)-2-oxoethyl)-3,8-diazabicyclo[3.2.1]octan-3-yl)-1H-pyrrolo[2,3-b]pyridin-6-yl)cyclopropanecarboxamide]",> 200
7,"O=C(Nc1cc(-c2ccc(NC3CCN(C(=O)NCC(F)(F)F)CC3)c(F)c2)c2cc[nH]c2n1)C1CC1 [Example 505, 4-((4-(6-(cyclopropanecarboxamido)-1H-pyrrolo[2,3-b]pyridin-4-yl)-2-fluorophenyl)amino)-N-(2,2,2-trifluoroethyl)piperidine-1-carboxamide]",20 to 200

# Second part, the compound after the results:
row,IC50 [nM],Structure (SMILES)
1,20 to 200,"CC(C)S(=O)(=O)Oc1ccc(-c2cc(NC(=O)C3CC3)nc3[nH]ccc23)cc1 [Example 633, 4-(6-(cyclopropanecarboxamido)-1H-pyrrolo[2,3-b]pyridin-4-yl)phenyl propane-2-sulfonate]"
2,< 20,"CCC1C=C(c2cc(NC(=O)C3CC3)nc3[nH]ccc23)CC(CC)N1C(=O)CC#N (stereo not drawn) [Example 409, N-(4-(1-(2-cyanoacetyl)-2,6-diethyl-1,2,3,6-tetrahydropyridin-4-yl)-1H-pyrrolo[2,3-b]pyridin-6-yl)cyclopropanecarboxamide]"
3,20 to 200,"O=C(Nc1cc(C2=CCC(NC3CN(C(=O)c4cc(F)cc(F)c4)C3)CC2)c2cc[nH]c2n1)C1CC1 (stereo not drawn) [Example 495, N-(4-(4-((1-(3,5-difluorobenzoyl)azetidin-3-yl)amino)cyclohex-1-en-1-yl)-1H-pyrrolo[2,3-b]pyridin-6-yl)cyclopropanecarboxamide]"
4,20 to 200,"CCS(=O)(=O)Nc1ccc(-c2nc(NC(=O)C3CC3)nc3[nH]ccc23)cc1F [Example 202, N-(4-(4-(ethylsulfonamido)-3-fluorophenyl)-7H-pyrrolo[2,3-d]pyrimidin-2-yl)cyclopropanecarboxamide]"
5,> 200,"N#Cc1cc(NS(=O)(=O)c2ccc(F)c(F)c2)ccc1-c1cc(NC(=O)C2CC2)nc2[nH]ccc12 [Example 146, N-(4-(2-cyano-4-((3,4-difluorophenyl)sulfonamido)phenyl)-1H-pyrrolo[2,3-b]pyridin-6-yl)cyclopropanecarboxamide]"
